Source: ChEMBL document CHEMBL3044826, “Design, synthesis and biological evaluation of some novel substituted 2-mercapto-3-phenethylquinazolines as antitumor agents” (2013)

Experiments:
Assay type in all cases: functional
MDA-MB-231 = test: Cytotoxicity against Homo sapiens (human) MDA-MB-231 cells assessed as growth inhibition at 10 uM after 48 hr by coulter counter analysis; conditions: MDA-MB-231, 48 h, read-out: GI
IGROV-1 = test: Cytotoxicity against Homo sapiens (human) IGROV1 cells assessed as growth inhibition at 10 uM after 48 hr by coulter counter analysis; conditions: IGROV-1, 48 h, read-out: GI
SN12C = test: Cytotoxicity against Homo sapiens (human) SN12C cells assessed as growth inhibition at 10 uM after 48 hr by coulter counter analysis; conditions: read-out: GI
PC-3 = test: Cytotoxicity against Homo sapiens (human) PC3 cells assessed as growth inhibition at 10 uM after 48 hr by coulter counter analysis; conditions: PC-3, 48 h, read-out: GI
BT-549 = test: Cytotoxicity against Homo sapiens (human) BT549 cells assessed as growth inhibition at 10 uM after 48 hr by coulter counter analysis; conditions: BT-549, 48 h, read-out: GI
RXF 393 = test: Cytotoxicity against Homo sapiens (human) RXF393 cells assessed as growth inhibition at 10 uM after 48 hr by coulter counter analysis; conditions: RXF 393, 48 h, read-out: GI
HCT-15 = test: Cytotoxicity against Homo sapiens (human) HCT15 cells assessed as growth inhibition at 10 uM after 48 hr by coulter counter analysis; conditions: HCT-15, 48 h, read-out: GI
MDA-MB-468 = test: Cytotoxicity against Homo sapiens (human) MDA-MB-468 cells assessed as growth inhibition at 10 uM after 48 hr by coulter counter analysis; conditions: MDA-MB-468, 48 h, read-out: GI
SK-MEL-28 = test: Cytotoxicity against Homo sapiens (human) SK-MEL-28 cells assessed as growth inhibition at 10 uM after 48 hr by coulter counter analysis; conditions: SK-MEL-28, 48 h, read-out: GI
UO-31 = test: Cytotoxicity against Homo sapiens (human) UO31 cells assessed as growth inhibition at 10 uM after 48 hr by coulter counter analysis; conditions: UO-31, 48 h, read-out: GI
UACC-62 = test: Cytotoxicity against Homo sapiens (human) UACC62 cells assessed as growth inhibition at 10 uM after 48 hr by coulter counter analysis; conditions: UACC-62, 48 h, read-out: GI
CAKI-1 = test: Cytotoxicity against Homo sapiens (human) Caki1 cells assessed as growth inhibition at 10 uM after 48 hr by coulter counter analysis; conditions: CAKI-1, 48 h, read-out: GI
SNB-75 = test: Cytotoxicity against Homo sapiens (human) SNB75 cells assessed as growth inhibition at 10 uM after 48 hr by coulter counter analysis; conditions: SNB-75, 48 h, read-out: GI
A549 = test: Cytotoxicity against Homo sapiens (human) A549 cells assessed as growth inhibition at 10 uM after 48 hr by coulter counter analysis; conditions: A549, 48 h, read-out: GI
NCI-H322M = test: Cytotoxicity against Homo sapiens (human) NCI-H322M cells assessed as growth inhibition at 10 uM after 48 hr by coulter counter analysis; conditions: read-out: GI
SW-620 = test: Cytotoxicity against Homo sapiens (human) SW620 cells assessed as growth inhibition at 10 uM after 48 hr by coulter counter analysis; conditions: SW-620, 48 h, read-out: GI
HCT-116 = test: Cytotoxicity against Homo sapiens (human) HCT116 cells assessed as growth inhibition at 10 uM after 48 hr by coulter counter analysis; conditions: HCT-116, 48 h, read-out: GI
HOP-62 = test: Cytotoxicity against Homo sapiens (human) HOP62 cells assessed as growth inhibition at 10 uM after 48 hr by coulter counter analysis; conditions: HOP-62, 48 h, read-out: GI
A498 = test: Cytotoxicity against Homo sapiens (human) A498 cells assessed as growth inhibition at 10 uM after 48 hr by coulter counter analysis; conditions: A498, 48 h, read-out: GI
COLO 205 = test: Cytotoxicity against Homo sapiens (human) COLO205 cells assessed as growth inhibition at 10 uM after 48 hr by coulter counter analysis; conditions: COLO 205, 48 h, read-out: GI
SF-539 = test: Cytotoxicity against Homo sapiens (human) SF539 cells assessed as growth inhibition at 10 uM after 48 hr by coulter counter analysis; conditions: SF-539, 48 h, read-out: GI
SF-268 = test: Cytotoxicity against Homo sapiens (human) SF268 cells assessed as growth inhibition at 10 uM after 48 hr by coulter counter analysis; conditions: SF-268, 48 h, read-out: GI
SNB-19 = test: Cytotoxicity against Homo sapiens (human) SNB19 cells assessed as growth inhibition at 10 uM after 48 hr by coulter counter analysis; conditions: SNB-19, 48 h, read-out: GI
TK-10 = test: Cytotoxicity against Homo sapiens (human) TK10 cells assessed as growth inhibition at 10 uM after 48 hr by coulter counter analysis; conditions: TK-10, 48 h, read-out: GI
HT-29 = test: Cytotoxicity against Homo sapiens (human) HT-29 cells assessed as growth inhibition at 10 uM after 48 hr by coulter counter analysis; conditions: HT-29, 48 h, read-out: GI
LOX IMVI = test: Cytotoxicity against Homo sapiens (human) LOXIMVI cells assessed as growth inhibition at 10 uM after 48 hr by coulter counter analysis; conditions: read-out: GI
OVCAR-3 = test: Cytotoxicity against Homo sapiens (human) OVCAR3 cells assessed as growth inhibition at 10 uM after 48 hr by coulter counter analysis; conditions: OVCAR-3, 48 h, read-out: GI
SK-OV-3 = test: Cytotoxicity against Homo sapiens (human) SKOV3 cells assessed as growth inhibition at 10 uM after 48 hr by coulter counter analysis; conditions: SK-OV-3, 48 h, read-out: GI
MDA-MB-435 = test: Cytotoxicity against Homo sapiens (human) MDA-MB-435 cells assessed as growth inhibition at 10 uM after 48 hr by coulter counter analysis; conditions: MDA-MB-435, 48 h, read-out: GI
SF-295 = test: Cytotoxicity against Homo sapiens (human) SF295 cells assessed as growth inhibition at 10 uM after 48 hr by coulter counter analysis; conditions: SF-295, 48 h, read-out: GI
ACHN = test: Cytotoxicity against Homo sapiens (human) ACHN cells assessed as growth inhibition at 10 uM after 48 hr by coulter counter analysis; conditions: read-out: GI
DU-145 = test: Cytotoxicity against Homo sapiens (human) DU145 cells assessed as growth inhibition at 10 uM after 48 hr by coulter counter analysis; conditions: DU-145, 48 h, read-out: GI
SK-MEL-5 = test: Cytotoxicity against Homo sapiens (human) SK-MEL-5 cells assessed as growth inhibition at 10 uM after 48 hr by coulter counter analysis; conditions: SK-MEL-5, 48 h, read-out: GI
MCF7 = test: Cytotoxicity against Homo sapiens (human) MCF7 cells assessed as growth inhibition at 10 uM after 48 hr by coulter counter analysis; conditions: MCF7, 48 h, read-out: GI

Measured: inhibition of growth at 10 µM

O=c1c2ccccc2nc(SCc2nnc(S)n2-c2ccccc2)n1CCc1ccccc1
20%: MDA-MB-231
16%: IGROV-1
12%: SF-295
17%: CAKI-1
41%: A498
25%: HCT-15
19%: UACC-62
24%: HOP-62 | SK-MEL-5
28%: MCF7
30%: PC-3 | UO-31
< 10%: all other assays above

O=c1c2ccccc2nc(SCCN2CCOCC2)n1CCc1ccccc1
14%: PC-3 | UO-31
< 10%: all other assays above

O=c1c2ccccc2nc(SCc2ccc([N+](=O)[O-])cc2)n1CCc1ccccc1
22%: UACC-62
3%: MDA-MB-468
20%: HCT-116
17%: CAKI-1
16%: A549
19%: MDA-MB-231
24%: DU-145
15%: HT-29
< 10%: all other assays above
